Experimental data from patent US9063143B2, “Cancer platinum resistance detection and sensitization method” (University of South Florida, priority 2008, dated 2015).

Columns and labels:
Assay in all cases: MTT cell proliferation assay, cisplatin resistance
Format in all cases: cell-based
Settings in all cases: MTT proliferation rate at 2 μg/mL
[1] = test system: T8 ovarian cancer cell line
Experimental: (§1) Ovarian cancer cell lines (C13, OV2008, A2780S, A2780CP, IGROV1, T8, A2008, IOSER, and OVCAR5) were grown in RPMI-1640 supplemented with 10% fetal bovine serum, 1% sodium pyruvate, and 1% nonessential amino acids. IOSER cells were grown in 1:1 MCBD105 and Medium 199, HEPES, Bovine Pituitary Extract, Insulin, hEGF, hydrocortisone and 15% FBS. All tissue culture reagents were obtained from Sigma Aldrich (St Louis, Mo.). Cells were maintained in a CO2 incubator at 37° C. and subcultured at 70% confluence. The cell lines consist of two from the NCI60 panel: IGR-OV1 (doubling time 31) and OVCAR-5 (doubling time 48.8). Several cell lines have mother/daughter relationships including A2008 and daughter C13; as well as A2780S/A2780CP.
(§2) To induce the development of platinum-resistance, the nine ovarian cancer cell lines were subjected to serial treatments with increasing dose cisplatin (Group A: 1 and 3 μg/mL, Group B: 2 and 4 μg/mL, and Group C: 3 and 5 μg/mL) using a protocol previously described by Hong et al (Antisense Bcl2 oligonucleotide in cisplatin-resistant bladder cancer cell lines. BJU Int. 2002 July; 90(1):113-7). For each of the 9 cell lines, three different dosage schedules were used: Schedule A—3 treatment/recovery cycles at 1 μg/mL, followed by 3 treatment/recovery cycles at 3 μg/mL; Schedule B—3 treatment/recovery cycles at 2 μg/mL, followed by 3 treatment/recovery cycles at 4 μg/mL; Schedule C—3 treatment/recovery cycles at 3 μg/mL, followed by 3 treatment/recovery cycles at 5 μg/mL. After each treatment, cells were allowed to recover before re-treatment. Gene expression analysis was performed prior to treatment, after 3 and 6 treatments. The experiment design and notations used for each treatment schedule are outlined in Table 1.
(§3) Thus, for each of the 9 cell lines, 3 different starting doses of cisplatin were used with three different recovery cycles, such that a total of 162 treatment/recovery cycles were induced. Increasing platinum-resistance was confirmed by MTT cell proliferation assays prior to cisplatin treatment, and after 3 and 6 treatment/recovery cycles (for each treatment schedule).
(§4) MTT solution was produced by dissolving 3-(4,5-Dimethylthiazol-2-yl)-2,5-diphenyltetrazolium bromide (MTT; Sigma, St. Louis, Mo., USA) in phosphate-buffered saline (PBS; 5 mg/mL). Cells (1×10^3) were incubated with 100 μL of culture medium for 48 h in 96-well plates, and 100 μL of MTT solution with RPMI media in a 1:10 concentration was added to each well. After 4 h of incubation, medium was decanted. 100 μL of acidified isopropanol was added to each well. […] MTT assays were performed independently in triplicate per each experimental time point and means reported. For each cell line at each time-point for each schedule, an IC50 was calculated using MTT assay, as well as a percent cell survival at a fixed cisplatin concentration (based upon the mid-point of the log-phase of the dose-response curve for each cell line at baseline), seen in Table 2.
(§5) Prior to treatment (baseline), and at each dose level following treatment (3 and 6 treatment/recovery cycles) and cell recovery, RNA was extracted and genome-wide expression analysis performed using U133 plus 2.0 Affymetrix chips and cisplatin-resistance was quantified using MTT assay. In parallel, at each of these time-points, RNA was extracted and genome-wide expression analysis performed using U133 plus 2.0 Affymetrix chips. Array analysis was performed on 72 samples. Following recovery from each dose level, cells were evaluated for platinum-resistance using MTT proliferation assay, seen in Table 3. Cell line recovery was defined as the time taken for the cells to repopulate in a normal fashion (to reach 70% confluence in 48 hours). Cell line proliferation rate at 2 μg/mL was used as a measure of resistance.

[2] = test system: OV2008 ovarian cancer cell line
Experimental: as §1, §2, §3, §4, §5

[3] = test system: IGROV1 ovarian cancer cell line
Experimental: as §1, §2, §3, §4, §5

[4] = test system: IOSER cells
Experimental: as §1, §2, §3, §4, §5

[5] = test system: A2780S ovarian cancer cell line
Experimental: as §1, §2, §3, §4, §5

[6] = test system: OVCAR5 ovarian cancer cell line
Experimental: as §1, §2, §3, §4, §5

[7] = test system: A2008 ovarian cancer cell line
Experimental: as §1, §2, §3, §4, §5

[8] = test system: C13 ovarian cancer cell line
Experimental: as §1, §2, §3, §4, §5

[9] = test system: A2780CP ovarian cancer cell line
Experimental: as §1, §2, §3, §4, §5

Q: Which Cell population measurements ([1]; T8 after cisplatin regimen 1.33) does the source give for N.N.[Cl][Pt][Cl] [cisplatin] here?
A: 42

Q: And the Cell population measurements ([1]; T8 after cisplatin regimen 2.33)?
A: 64

Q: And the Cell population measurements ([1]; T8 after cisplatin regimen 3.33)?
A: 67

Q: And the Cell population measurements ([1]; T8 after cisplatin regimen 3.36)?
A: 68.4

Q: What about the Cell population measurements ([1]; T8 after cisplatin regimen 4.36) of the same molecule?
A: 69

Q: What about the Cell population measurements ([1]; T8 after cisplatin regimen 5.36) of the same molecule?
A: 62

Q: What about the Cell population measurements ([2]; OV2008 after cisplatin regimen 1.33) of the same molecule?
A: 62

Q: And the Cell population measurements ([2]; OV2008 after cisplatin regimen 2.33)?
A: 54

Q: What about the Cell population measurements ([2]; OV2008 after cisplatin regimen 3.33) of the same molecule?
A: 67

Q: And the Cell population measurements ([2]; OV2008 after cisplatin regimen 3.36)?
A: 64.8

Q: What about the Cell population measurements ([2]; OV2008 after cisplatin regimen 4.36) of the same molecule?
A: 98

Q: And the Cell population measurements ([2]; OV2008 after cisplatin regimen 5.36)?
A: 86

Q: What about the Cell population measurements ([3]; IGROV1 after cisplatin regimen 1.33) of the same molecule?
A: 69

Q: What about the Cell population measurements ([3]; IGROV1 after cisplatin regimen 2.33) of the same molecule?
A: 48

Q: And the Cell population measurements ([3]; IGROV1 after cisplatin regimen 3.33)?
A: 55

Q: What about the Cell population measurements ([3]; IGROV1 after cisplatin regimen 3.36) of the same molecule?
A: 68.3

Q: And the Cell population measurements ([3]; IGROV1 after cisplatin regimen 4.36)?
A: 69

Q: And the Cell population measurements ([3]; IGROV1 after cisplatin regimen 5.36)?
A: 58

Q: What about the Cell population measurements ([4]; IOSER after cisplatin regimen 1.33) of the same molecule?
A: 62

Q: And the Cell population measurements ([4]; IOSER after cisplatin regimen 2.33)?
A: 70

Q: And the Cell population measurements ([4]; IOSER after cisplatin regimen 3.33)?
A: 79

Q: What about the Cell population measurements ([4]; IOSER after cisplatin regimen 3.36) of the same molecule?
A: 89

Q: And the Cell population measurements ([4]; IOSER after cisplatin regimen 4.36)?
A: 71

Q: What about the Cell population measurements ([4]; IOSER after cisplatin regimen 5.36) of the same molecule?
A: 84

Q: What about the Cell population measurements ([5]; A2780S after cisplatin regimen 1.33) of the same molecule?
A: 26

Q: What about the Cell population measurements ([5]; A2780S after cisplatin regimen 2.33) of the same molecule?
A: 39

Q: And the Cell population measurements ([5]; A2780S after cisplatin regimen 3.33)?
A: 64

Q: What about the Cell population measurements ([5]; A2780S after cisplatin regimen 3.36) of the same molecule?
A: 30.5

Q: And the Cell population measurements ([5]; A2780S after cisplatin regimen 4.36)?
A: 87

Q: And the Cell population measurements ([5]; A2780S after cisplatin regimen 5.36)?
A: 72

Q: And the Cell population measurements ([6]; OVCAR5 after cisplatin regimen 1.33)?
A: 49

Q: And the Cell population measurements ([6]; OVCAR5 after cisplatin regimen 2.33)?
A: 41

Q: And the Cell population measurements ([6]; OVCAR5 after cisplatin regimen 3.33)?
A: 47

Q: What about the Cell population measurements ([6]; OVCAR5 after cisplatin regimen 3.36) of the same molecule?
A: 66.5

Q: And the Cell population measurements ([6]; OVCAR5 after cisplatin regimen 4.36)?
A: 69

Q: And the Cell population measurements ([6]; OVCAR5 after cisplatin regimen 5.36)?
A: 63

Q: What about the Cell population measurements ([7]; A2008 after cisplatin regimen 1.33) of the same molecule?
A: 19

Q: What about the Cell population measurements ([7]; A2008 after cisplatin regimen 2.33) of the same molecule?
A: 33

Q: And the Cell population measurements ([7]; A2008 after cisplatin regimen 3.33)?
A: 25

Q: What about the Cell population measurements ([7]; A2008 after cisplatin regimen 3.36) of the same molecule?
A: 25.6

Q: And the Cell population measurements ([7]; A2008 after cisplatin regimen 4.36)?
A: 29

Q: What about the Cell population measurements ([7]; A2008 after cisplatin regimen 5.36) of the same molecule?
A: 37

Q: What about the Cell population measurements ([8]; C13 after cisplatin regimen 1.33) of the same molecule?
A: 83

Q: And the Cell population measurements ([8]; C13 after cisplatin regimen 2.33)?
A: 73

Q: What about the Cell population measurements ([8]; C13 after cisplatin regimen 3.33) of the same molecule?
A: 71

Q: What about the Cell population measurements ([8]; C13 after cisplatin regimen 3.36) of the same molecule?
A: 53

Q: And the Cell population measurements ([8]; C13 after cisplatin regimen 4.36)?
A: 91

Q: And the Cell population measurements ([8]; C13 after cisplatin regimen 5.36)?
A: 67

Q: And the Cell population measurements ([9]; A2780CP after cisplatin regimen 1.33)?
A: 84

Q: What about the Cell population measurements ([9]; A2780CP after cisplatin regimen 2.33) of the same molecule?
A: 100

Q: What about the Cell population measurements ([9]; A2780CP after cisplatin regimen 3.33) of the same molecule?
A: 91

Q: And the Cell population measurements ([9]; A2780CP after cisplatin regimen 3.36)?
A: 100

Q: And the Cell population measurements ([9]; A2780CP after cisplatin regimen 4.36)?
A: 83

Q: And the Cell population measurements ([9]; A2780CP after cisplatin regimen 5.36)?
A: 98
